The values below come from patent publication US20160009751A1, “C-19 HYDROXY PREGNENES” (LEO Pharma A/S, priority 2014, published 2016).

Some results are limits rather than exact numbers.

Assay [1] deals with Interleukin-12B (IL-12B) release from primary human monocytes (PBMC). As to the kind of experiment: Interleukin-12B (IL-12B) release from LPS-stimulated primary human monocytes (PBMC). Type of assay: cell-based. The settings on record: 100 ng/ml LPS for 18 h, ELISA, relative IC50, read-out: Interleukin-12B (IL-12B), Rel IC50. The source says:
The assay was adopted from a previously reported method (Schäcke et al, Br 3 Pharmacol (2009); 158(4): 1088-103) and is based on PBMC isolated from human blood. Stimulation of these cells with lipopolysaccharide (LPS) induces—among many other processes—the synthesis and secretion of the cytokine IL-12B. Both steroidal (glucocorticoids) and non-steroidal glucocorticoid receptor agonists act anti-inflammatory—e.g. by preventing DNA-binding of inflammatory transcription factors like AP-1 or NFkB—resulting in decreased synthesis/secretion of IL12B.
For compound testing, frozen stocks of PBMC were thawed, seeded in 96-well plates (1.2E5 cells/well) and then incubated in RPMI-1640 culture medium with 100 ng/ml LPS for 18 h with or without test compounds (pre-incubation with reference/test compounds for 1 h before addition of LPS). Then, IL-12B concentration in the cell culture supernatants was detected by hIL-12B-specific ELISA (Quantikine® human IL-12 p40 Immunoassay, R&D Systems Cat #SP400).
A general note: In an ELISA, binding on a coated surface is turned into a signal by an enzyme label.

In assay [2] the target is T1, recombinant glucocorticoid receptor (GR) (Homo sapiens, UniProt P04150).
T1 sequence (P04150 1-777): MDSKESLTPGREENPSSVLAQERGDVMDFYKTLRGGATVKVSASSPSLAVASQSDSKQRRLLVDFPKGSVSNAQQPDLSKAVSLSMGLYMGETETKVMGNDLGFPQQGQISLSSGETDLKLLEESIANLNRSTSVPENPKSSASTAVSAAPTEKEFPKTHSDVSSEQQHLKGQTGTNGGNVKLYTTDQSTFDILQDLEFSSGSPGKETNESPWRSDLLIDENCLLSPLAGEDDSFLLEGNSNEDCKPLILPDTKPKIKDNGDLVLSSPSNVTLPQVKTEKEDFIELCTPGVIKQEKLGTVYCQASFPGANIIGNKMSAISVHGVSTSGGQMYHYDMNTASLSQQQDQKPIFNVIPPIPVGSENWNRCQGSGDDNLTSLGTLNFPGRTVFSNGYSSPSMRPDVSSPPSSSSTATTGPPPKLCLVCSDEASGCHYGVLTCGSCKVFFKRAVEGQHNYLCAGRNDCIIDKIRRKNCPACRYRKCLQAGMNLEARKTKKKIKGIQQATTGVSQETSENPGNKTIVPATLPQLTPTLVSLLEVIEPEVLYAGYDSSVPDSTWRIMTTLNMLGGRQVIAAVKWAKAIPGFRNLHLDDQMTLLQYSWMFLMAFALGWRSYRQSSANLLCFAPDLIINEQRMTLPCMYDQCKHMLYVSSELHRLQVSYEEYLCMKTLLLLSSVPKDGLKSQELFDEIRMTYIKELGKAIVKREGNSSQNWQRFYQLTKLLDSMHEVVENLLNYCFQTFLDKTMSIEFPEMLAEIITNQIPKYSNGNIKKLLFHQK
As to the kind of experiment: Glucocorticoid receptor (GR) competitive binding assay (PolarScreen, fluorescence polarization). The settings on record: competition with Fluormone GS1, 2 hours at room temperature; relative IC50; read-out: GR binding; Rel IC50. As to the method:
Glucocorticoid receptor binding was determined by competitive receptor binding assay using the PolarScreen™ Glucocorticoid Receptor Competitor Assay Kit, Green (Life Technologies, catalogue number A15897) in a 384-well format according to the manufacturer's instructions. Briefly, serial dilutions of test and reference compounds were prepared in 384-well plates. Subsequently, the steroidal competitor Fluormone™ GS1 and recombinant glucocorticoid receptor (GR) were added to all wells and the plate was incubated for 2 hours at room temperature and protected from light. Finally, polarization values in each well were determined by reading the plate in an EnVision (PerkinElmer) device.
On the technique in general: In fluorescence polarisation assays a small probe gives low polarisation when free and higher when bound to something large.

Assay [3] addresses T2, mineralocorticoid receptor (MR) (Homo sapiens, UniProt P08235).
T2 construct: UAS-driven beta-lactamase reporter
T2 sequence (P08235 726-984 limits assumed): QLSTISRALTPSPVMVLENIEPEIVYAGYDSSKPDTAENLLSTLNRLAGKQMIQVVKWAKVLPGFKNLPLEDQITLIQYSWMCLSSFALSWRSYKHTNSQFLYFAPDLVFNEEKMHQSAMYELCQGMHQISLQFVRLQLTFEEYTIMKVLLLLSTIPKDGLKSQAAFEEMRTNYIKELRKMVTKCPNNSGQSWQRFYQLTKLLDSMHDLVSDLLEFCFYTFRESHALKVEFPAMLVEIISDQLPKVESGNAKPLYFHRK
As to the kind of experiment: Mineralocorticoid receptor (MR) antagonism assay (GeneBLAzer MR DA, beta-lactamase reporter). Format: cell-based. The following applies: 0.14 nM-1 uM test compound, 10 nM aldosterone; relative IC50; read-out: Mineral corticoid receptor (MR) antagonism; Rel IC50. As to the method:
Agonistic and antagonistic interaction with the mineralocorticoid receptor was determined using the GeneBLAzer® MR DA Assay Kit (Life Technologies, catalogue number K1409) in a 96-well format according to the manufacturer's instructions. For determination of MR agonistic effect, cells were incubated with 0.14 nM-1 uM of test compound; the MR agonist aldosterone was included as a positive control in the same concentration range. After 16 h incubation, assay substrate (LiveBLAzer™-FRET B/G) was added to all wells and cells were incubated for 2 h followed by fluorometric detection (409/447 nm excitation and emission wavelength, respectively) of substrate conversion by beta-lactamase.
After 0.5 h, 10 nM of the MR agonist aldosterone was added to all wells and cells were incubated for another 15.5 h. After that, assay substrate (LiveBLAzer™-FRET B/G) was added to all wells and cells were incubated for 2 h followed by fluorometric detection (409/447 nm excitation and emission wavelength, respectively) substrate conversion by beta lactamase.

Consider `CCCCC(=O)O[C@]1(C(=O)CO)[C@@H](C)C[C@H]2[C@@H]3CCC4=CC(=O)C=C[C@]4(C)[C@@]3(F)[C@@H](O)C[C@@]21C` [Bethamethasone valerate], for which the IC50 in assay [1] was less than 1 nM; in assay [2] it was 7 nM; in assay [3], 137 nM.

With `CCC(=O)O[C@]1(C(=O)CCl)[C@@H](C)C[C@H]2[C@@H]3CCC4=CC(=O)C=C[C@]4(C)[C@@]3(F)[C@@H](O)C[C@@]21C` [Clobetasol propionate], the IC50 was less than 1 nM in assay [1], 6 nM in assay [2] and 171 nM in assay [3].

Take `CCC(=O)O[C@]1(C(=O)CCl)CC[C@H]2[C@@H]3CCC4=CC(=O)CC[C@]4(CO)[C@H]3[C@@H](O)C[C@@]21C` [Compound 1, (8S,9S,10S,11S,13S,14S,17R)-17-(2-chloroacetyl)-11-hydroxy-10-(hydroxymethyl-13-methyl-3-oxo-2,3,6,7,8,9,10,11,12,13,14,15,16,17-tetradecahydro-1H-cyclopenta[a]phenanthren-17-yl propionate]: the IC50 is 36 nM in assay [1], 25 nM in assay [2] and more than 1000 nM in assay [3].

In the case of `CCC(=O)O[C@]1(C(=O)CCl)CC[C@H]2[C@@H]3C[C@@H](F)C4=CC(=O)CC[C@]4(CO)[C@H]3[C@@H](O)C[C@@]21C` [Compound 2, (6R,8S,9S,10S,11S,13S,14S,17R)-17-(2-chloroacetyl)-6-fluoro-11-hydroxy-10-(hydroxymethyl)-13-methyl-3-oxo-2,3,6,7,8,9,10,11,12,13,14,15,16,17-tetradecahydro-1H-cyclopenta[a]phenanthren-17-yl propionate], the IC50 in assay [1] turned out to be 31 nM; in assay [2], 40 nM.
